# Reference: US20050106305A1, “Beverage compositions comprising monatin and methods of making same” (Cargill, Inc., priority 2003, published 2005)
# Read-outs that look alike come from different tables or passages of the source. Where a SMILES comes first, the peptide text is derived from it.
# What was measured:
# [1] = Sensory evaluation of soft drinks (lemon/lime, orangeade, cola); format: in vivo; conditions: Lemon/lime soft drink; aspartame 500 ppm, sucralose 200 ppm, R,R monatin 42 ppm
# Procedure: Beverages (cola, lemon-lime and orange) were formulated and sweetened with aspartame, sucralose or R,R monatin. Qualitative evaluation was carried out.
# The term “throw” refers to dilution in water. For example, a throw of “1+4” means 1 part concentrate formulation to 4 parts water. Thus, if a concentrate formulation includes 0.021% wt/vol (i.e., 210 ppm) of R,R monatin, for example, a throw of 1+4 makes a diluted beverage containing 42 ppm (210 ppm/5) R,R monatin.
# Final ready-to-drink beverages (after throw) contained sweetener concentrations as follows:
# Evaluation of these soft drinks was carried out by a panel (n=6) of assessors who evaluated each set of drinks on separate tasting occasions.
# [2] = Sensory stability of monatin and aspartame at pH 2.5, 3.0, 4.0 at 40° C.; format: physicochemical; conditions: for Rate constant (k) of sweetness loss / half-life: pseudo-first order assumed; for SEV / Retention of Sweetness: stored 40° C., monatin ~55 ppm, aspartame 400 ppm; for half-life: phosphate/citrate buffer, read-out: Half-life (t½) of sweetness loss (converted)
# Procedure: The sensory stability of monatin solutions prepared at pH 2.5, 3.0 and 4.0 and stored at 40° C. was monitored for 100 days. Loss of sweetness from these solutions was compared with the losses of sweetness from aspartame solutions prepared and stored under identical conditions.
# The sensory stability of monatin (8% SEV, ˜55 ppm, synthetic blend containing approximately 96% of the 2R,4R/2S, 4S enantiometric pair and 4% of the 2R,4S/2S,4R enantiometric pair) in phosphate/citrate buffers having a pH of 2.5, 3.0, and 4.0 was examined after storage at 40° C. The stability of monatin was compared to that of aspartame (400 ppm) in the same buffers. Three sucrose reference solutions were prepared in the same phosphate/citrate buffers as the monatin and aspartame solutions. All prepared solutions were stored in the dark.
# Buffer compositions: pH 2.5 Phosphoric acid (75% solution) 0.127% (w/v) Tri-sodium citrate monohydrate 0.005% (w/v) • pH 3.0 Phosphoric acid (75% solution) 0.092% (w/v) Tri-sodium citrate monohydrate 0.031% (w/v) • pH 4.0 Phosphoric acid (75% solution) 0.071% (w/v) Tri-sodium citrate monohydrate 0.047% (w/v)
# The sweetness of each sweetener relative to sucrose was assessed in duplicate by a panel (n=8) of trained sensory evaluators experienced in the sweetness estimation procedure. All samples (in the same buffers) were served in duplicate at a temperature of 22° C.±1° C. Monatin (test) solutions, coded with 3 digit random number codes were presented individually to panelists, in random order. Sucrose reference standards, ranging from 4.0-10.0% (w/v) sucrose, increasing in steps of 0.5% (w/v) sucrose were also provided. Panelists were asked to estimate sweetness by comparing the sweetness of the test solution to the sucrose standards. This was carried out by taking 3 sips of the test solution, followed by a sip of water, followed by 3 sips of sucrose standard followed by a sip of water, etc. Panelists were encouraged to estimate the sweetness to one decimal place, e.g., 6.8, 8.5. A five minute rest period was imposed between evaluating the test solutions. Panelists were also asked to rinse well and eat a cracker to reduce any potential carry over effects.
# If a pseudo-first order breakdown reaction is assumed, a plot of logn percentage retention versus time (logn%RTN v. t) allows estimation of the half-life (t½) and rate constant (k) of sweetness loss under any given set of conditions. In so doing, the kinetics of monatin and aspartame sweetness loss may be summarized as follows in Table 25.
# [3] = Taste profiling of lemon/lime carbonates and colas; format: in vivo; conditions: HFCS 10%, aspartame 500 ppm, sucralose 200 ppm, blends 30.8 ppm/5.0%; for Average Score: score 1, poor-5, good, sucrose 10%
# Procedure: Cola and lemon/lime beverages were prepared using the following formulations and sweetened with sucrose, HFCS (55% fructose), aspartame, sucralose, monatin (racemic mix described in Example 14), monatin/sucrose, or monatin/HFCS. One part of syrup was added to 5.5 parts carbonated water and evaluated.
# Assessments were carried out ‘double blind’ by a panel of trained tasters. The sucrose-sweetened product was identified as the control and all other products randomly coded. Panelists were asked to assess the randomly coded sample relative to the control for the following attributes:
# Panelists also were asked assign a score (1; poor-5; good) for the quality of the sweetener system. A summary of the comments generated together with the average score awarded is presented in Tables 12 and 13 for lemon/lime carbonates and colas, respectively. […] Blends of monatin/carbohydrate rated higher. In the cola, monatin was similar to aspartame.
# [4] = cola, sucrose 10% (control), monatin 80 ppm
# [5] = lemon/lime carbonate, sucrose 10% (control), monatin 67 ppm
smiles,measurement,setting,value
"COC(=O)[C@H](Cc1ccccc1)NC(=O)[C@@H](N)CC(=O)O [Aspartame, aspartame] (H-Asp-Phe-OMe)",Comments (sensory evaluation),[1],Balanced sweetness/acidity profile. Very
same,Sweetness Retained,[2]; after 100 days storage at pH 2.5 at 40° C.,11%
same,Sweetness Retained,[2]; after 100 days storage at pH 3.0 at 40° C.,31%
same,Sweetness Retained,[2]; after 100 days storage at pH 4.0 at 40° C.,58%
same,Rate constant (k) of sweetness loss,"[2]; pH 2.5, 40° C.",0.013 day⁻¹
same,SEV,"[2]; pH 2.5 buffer, day 0",7.34 % sucrose
same,Retention of Sweetness,"[2]; pH 2.5 buffer, day 1",94.0%
same,SEV,"[2]; pH 2.5 buffer, day 1",6.90 % sucrose
same,Retention of Sweetness,"[2]; pH 2.5 buffer, day 2",92.6%
same,SEV,"[2]; pH 2.5 buffer, day 2",6.80 % sucrose
same,Retention of Sweetness,"[2]; pH 2.5 buffer, day 3",89.9%
same,SEV,"[2]; pH 2.5 buffer, day 3",6.60 % sucrose
same,Retention of Sweetness,"[2]; pH 2.5 buffer, day 4",85.7%
same,SEV,"[2]; pH 2.5 buffer, day 4",6.29 % sucrose
same,Retention of Sweetness,"[2]; pH 2.5 buffer, day 7",81.9%
same,SEV,"[2]; pH 2.5 buffer, day 7",6.01 % sucrose
same,Retention of Sweetness,"[2]; pH 2.5 buffer, day 8",81.5%
same,SEV,"[2]; pH 2.5 buffer, day 8",5.98 % sucrose
same,Retention of Sweetness,"[2]; pH 2.5 buffer, day 9",81.3%
same,SEV,"[2]; pH 2.5 buffer, day 9",5.97 % sucrose
same,Retention of Sweetness,"[2]; pH 2.5 buffer, day 11",79.8%
same,SEV,"[2]; pH 2.5 buffer, day 11",5.86 % sucrose
same,Retention of Sweetness,"[2]; pH 2.5 buffer, day 50",57.1%
same,SEV,"[2]; pH 2.5 buffer, day 50",4.19 % sucrose
same,Retention of Sweetness,"[2]; pH 2.5 buffer, day 100",10.9%
same,SEV,"[2]; pH 2.5 buffer, day 100",0.80 % sucrose
same,Rate constant (k) of sweetness loss,"[2]; pH 3.0, 40° C.",0.009 day⁻¹
same,SEV,"[2]; pH 3.0 buffer, day 0",7.15 % sucrose
same,Retention of Sweetness,"[2]; pH 3.0 buffer, day 1",96.5%
same,SEV,"[2]; pH 3.0 buffer, day 1",6.90 % sucrose
same,Retention of Sweetness,"[2]; pH 3.0 buffer, day 2",96.1%
same,SEV,"[2]; pH 3.0 buffer, day 2",6.87 % sucrose
same,Retention of Sweetness,"[2]; pH 3.0 buffer, day 3",92.3%
same,SEV,"[2]; pH 3.0 buffer, day 3",6.60 % sucrose
same,Retention of Sweetness,"[2]; pH 3.0 buffer, day 4",89.9%
same,SEV,"[2]; pH 3.0 buffer, day 4",6.43 % sucrose
same,Retention of Sweetness,"[2]; pH 3.0 buffer, day 7",86.3%
same,SEV,"[2]; pH 3.0 buffer, day 7",6.17 % sucrose
same,Retention of Sweetness,"[2]; pH 3.0 buffer, day 8",82.9%
same,SEV,"[2]; pH 3.0 buffer, day 8",5.93 % sucrose
same,Retention of Sweetness,"[2]; pH 3.0 buffer, day 9",83.1%
same,SEV,"[2]; pH 3.0 buffer, day 9",5.94 % sucrose
same,Retention of Sweetness,"[2]; pH 3.0 buffer, day 11",81.5%
same,SEV,"[2]; pH 3.0 buffer, day 11",5.83 % sucrose
same,Retention of Sweetness,"[2]; pH 3.0 buffer, day 50",65.9%
same,SEV,"[2]; pH 3.0 buffer, day 50",4.71 % sucrose
same,Retention of Sweetness,"[2]; pH 3.0 buffer, day 100",30.8%
same,SEV,"[2]; pH 3.0 buffer, day 100",2.20 % sucrose
same,Rate constant (k) of sweetness loss,"[2]; pH 4.0, 40° C.",0.005 day⁻¹
same,SEV,"[2]; pH 4.0 buffer, day 0",7.10 % sucrose
same,Retention of Sweetness,"[2]; pH 4.0 buffer, day 3",95.1%
same,SEV,"[2]; pH 4.0 buffer, day 3",6.75 % sucrose
same,Retention of Sweetness,"[2]; pH 4.0 buffer, day 8",87.8%
same,SEV,"[2]; pH 4.0 buffer, day 8",6.23 % sucrose
same,Retention of Sweetness,"[2]; pH 4.0 buffer, day 11",84.8%
same,SEV,"[2]; pH 4.0 buffer, day 11",6.02 % sucrose
same,Retention of Sweetness,"[2]; pH 4.0 buffer, day 17",81.0%
same,SEV,"[2]; pH 4.0 buffer, day 17",5.75 % sucrose
same,Retention of Sweetness,"[2]; pH 4.0 buffer, day 24",82.4%
same,SEV,"[2]; pH 4.0 buffer, day 24",5.85 % sucrose
same,Retention of Sweetness,"[2]; pH 4.0 buffer, day 50",74.5%
same,SEV,"[2]; pH 4.0 buffer, day 50",5.29 % sucrose
same,Retention of Sweetness,"[2]; pH 4.0 buffer, day 100",57.7%
same,SEV,"[2]; pH 4.0 buffer, day 100",4.10 % sucrose
same,half-life,"[2]; pH 2.5, 40° C.",55 days
same,half-life,"[2]; pH 3.0, 40° C.",75 days
same,half-life,"[2]; pH 4.0, 40° C.",140 days
same,Aftertaste,[3]; [4],Lingering sweetness
same,Flavor Profile,[3]; [4],"Sweet flavor, flatter"
same,Mouthfeel,[3]; [4],Thinner mouthfeel
same,Sweetness Profile,[3]; [4],Delayed sweetness
same,Flavor Profile,[3]; [5],Slightly lacking upfront.
same,Sweetness Profile,[3]; [5],Sweetness onset quite
same,Average Score,"[3]; cola, monatin 80 ppm",3.3
same,Average Score,"[3]; lemon/lime carbonate, monatin 67 ppm",4.0
